Reference: patent US7799821B2, “Therapeutic compounds” (Allergan, Inc., priority 2004, dated 2010)

Columns and labels:
[1] = tested on: Beagle dogs; experiment: Ocular surface hyperemia, dogs; format: in vivo; design: key: 0.5: <1 trace; 1 mild; 2: moderate; 3: severe; settings: score
Protocol: (§1) Ocular surface hyperemia was visually assessed and scored according to a system typically used clinically.
(§2) Ocular surface hyperemia was evaluated at the same time points as intraocular pressure measurement. It should be noted that untreated dog eyes frequently have a pink/red tone. Thus, values of trace or even mild are not necessarily out of the normal range. Similar tests were used to determine ocular surface hyperemia on monkeys and rabbits.

[2] = tested on: monkeys; experiment: Intraocular pressure (IOP) in monkeys; format: in vivo; settings: Conc. 0.10% (0.1%) g/100 mL
[3] = tested on: rabbits; experiment: Ocular surface hyperemia, rabbits; format: in vivo; settings: Conc. 0.10% (0.1%) g/100 mL, score
Protocol: as §1, §2

[4] = tested on: Beagle dogs; experiment: Intraocular pressure (IOP) in dogs, pneumatonometry; format: in vivo; settings: topical
Protocol: (§3) Intraocular pressure studies in dogs involved pneumatonometry performed in conscious, Beagle dogs of both sexes (10-15 kg). The animals remained conscious throughout the study and were gently restrained by hand. Drugs were administered topically to one eye as a 25 μL volume drop, the other eye received 25 μL vehicle (0.1% (w/v) polysorbate 80; 10 mM TRIS) as a control. Proparacaine (0.1% w/v) was used for corneal anesthesia during tonometry. Intraocular pressure was determined just before drug administration and at 2, 4 and 6 hr thereafter on each day of the 5 day study. Drug was administered immediately after the first IOP reading.
as §3, with “(0.1%” for “(0.1% (w/v)”, “80:10” for “80; 10”, “(0.1%)” for “(0.1% w/v)”

[5] = target: T1, HEP3 (Homo sapiens, UniProt P43115); experiment: Radioligand binding, EP3; settings: printed in the HEP3 binding column; read-out: Ki (marked "Ki" in BINDING HEP3)
T1 sequence (P43115 1-390): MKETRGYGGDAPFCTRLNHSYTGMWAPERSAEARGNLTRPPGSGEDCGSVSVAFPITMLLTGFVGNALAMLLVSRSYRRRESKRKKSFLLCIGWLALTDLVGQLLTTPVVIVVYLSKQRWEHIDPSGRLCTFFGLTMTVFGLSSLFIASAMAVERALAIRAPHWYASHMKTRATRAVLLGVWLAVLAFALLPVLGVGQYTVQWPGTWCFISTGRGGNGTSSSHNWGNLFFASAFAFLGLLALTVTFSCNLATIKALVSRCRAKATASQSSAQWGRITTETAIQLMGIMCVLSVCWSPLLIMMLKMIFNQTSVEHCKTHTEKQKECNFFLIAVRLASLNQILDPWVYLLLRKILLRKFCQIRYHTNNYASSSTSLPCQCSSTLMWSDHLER

[6] = target: T2, hEP2/Gqs5 (Homo sapiens, UniProt P43116); experiment: FLIPR calcium signal, hEP2; format: cell-based; settings: FLIPR Ca2+ signal, HEK-293(EBNA); read-out: FUNCTIONAL EC50 HEP2
T2 construct: expressed in transfected cells; host or cells: HEK-293(EBNA)
How it was run: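 HEK-293(EBNA) cells stably expressing the recombinant human receptor were loaded with 2 μM Fluo-4 AM for 45 min and read on FLIPR at 37° C in HBSS-HEPES pH 7.4. Peak fluorescence rise was expressed relative to buffer and standard agonist controls (BW245C, PGE2 or U-46619 by receptor); compounds were run 10^−5 to 10^−11 M in duplicate, n≧3.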

T2 sequence (P43116 whole entry): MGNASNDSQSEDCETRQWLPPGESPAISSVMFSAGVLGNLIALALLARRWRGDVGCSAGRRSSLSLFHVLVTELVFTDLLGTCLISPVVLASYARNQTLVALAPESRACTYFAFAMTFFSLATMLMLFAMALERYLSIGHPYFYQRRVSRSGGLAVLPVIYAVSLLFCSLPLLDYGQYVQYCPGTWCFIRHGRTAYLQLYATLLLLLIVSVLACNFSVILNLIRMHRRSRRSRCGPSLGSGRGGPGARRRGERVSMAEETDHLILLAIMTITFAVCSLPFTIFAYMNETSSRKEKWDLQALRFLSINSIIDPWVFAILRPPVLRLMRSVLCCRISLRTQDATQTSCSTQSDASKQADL

| SMILES | DOG Max. hyperemia ([1]; Conc. 0.10% (0.1%) g/100 mL) | RABBIT Max. hyperemia [3] | MONKEY Max. ΔIOP (mm Hg) [2] [mm Hg] | DOG Max. ΔIOP (mm Hg) ([4]; Conc. 0.10% (0.1%) g/100 mL) | further results |
| --- | --- | --- | --- | --- | --- |
| CCCCCC(=O)c1ccc([C@@H]2[C@@H](C/C=C\CCCC(=O)O)[C@H](Cl)C[C@H]2O)cc1 | 2.0 | – | 31 | – | – |
| CCCCCC(=O)c1ccc([C@@H]2[C@@H](C/C=C\CCCC(=O)OC(C)C)[C@H](Cl)C[C@H]2O)cc1 | 0.8 | 0 | 20 | – | – |
| CCCCCC(O)c1ccc([C@@H]2[C@@H](C/C=C\CCCC(=O)OC(C)C)[C@H](Cl)C[C@H]2Cl)cc1 (stereo partly drawn) | 0.6 | 0.0 | 19 | −12 | – |
| CC(C)C(O)c1ccc([C@@H]2[C@@H](C/C=C\CCCC(=O)O)[C@H](Cl)C[C@H]2O)cc1 (stereo partly drawn) | – | – | – | – | Ki [5]: 1340 nM; EC50 [6]: 497 nM |
| CC(C)C(O)c1ccc([C@@H]2[C@@H](CCCCCCC(=O)O)[C@H](Cl)C[C@H]2O)cc1 (stereo partly drawn) | – | – | – | – | Ki [5]: 3020 nM; EC50 [6]: > 10000 nM |
| CC(C)(C)c1ccc([C@@H]2[C@@H](CCCCCCC(=O)O)[C@H](Cl)C[C@H]2O)cc1 [drawing 237] | 0.9 | 0 | – | −4 | – |
| O=C(O)CCC/C=C\C[C@@H]1[C@@H](c2ccc(C(O)C3CCCCC3)cc2)[C@H](O)C[C@H]1Cl (stereo partly drawn) [drawing 239] | 1 | 0 | – | −4 | – |
| CC(C)(CO)c1ccc([C@@H]2[C@@H](C/C=C\CCCC(=O)O)[C@H](Cl)C[C@H]2O)cc1 [drawing 243] | – | – | – | – | DOG Max. ΔIOP (mm Hg) ([4]; Conc. 0.30% g/100 mL): −8 mm Hg; DOG Max. hyperemia ([1]; Conc. 0.30% g/100 mL): 0.9 |
